ChEMBL document CHEMBL1811855, “Xylarenones C-E from an endophytic fungus isolated from Alibertia macrophylla” (J Nat Prod, 2011)

Legend:
[1] = Inhibition of pepsin from porcine gastric mucosa using Arg-Glu-(EDANS)- Ser-Gln-Asn-Tyr-Pro-Ile-Val-Gln-Lys-(DALBCYL)-Arg fluorogenic substrate preincubated for 1 hr measured after 1 hr at 1 min interval by fluorescence assay; design: species or system Sus scrofa
[2] = target: T1, Proprotein convertase subtilisin/kexin type 7 (Homo sapiens) (UniProt Q16549); experiment: Inhibition of recombinant type 8 subtilisin using Arg-Glu-(EDANS)- Ser-Gln-Asn-Tyr-Pro-Ile-Val-Gln-Lys-(DALBCYL)-Arg fluorogenic substrate at 0.1 ug/ml preincubated for 1 hr measured after 1 hr at 1 min interval by fluorescence assay
T1 sequence (whole entry): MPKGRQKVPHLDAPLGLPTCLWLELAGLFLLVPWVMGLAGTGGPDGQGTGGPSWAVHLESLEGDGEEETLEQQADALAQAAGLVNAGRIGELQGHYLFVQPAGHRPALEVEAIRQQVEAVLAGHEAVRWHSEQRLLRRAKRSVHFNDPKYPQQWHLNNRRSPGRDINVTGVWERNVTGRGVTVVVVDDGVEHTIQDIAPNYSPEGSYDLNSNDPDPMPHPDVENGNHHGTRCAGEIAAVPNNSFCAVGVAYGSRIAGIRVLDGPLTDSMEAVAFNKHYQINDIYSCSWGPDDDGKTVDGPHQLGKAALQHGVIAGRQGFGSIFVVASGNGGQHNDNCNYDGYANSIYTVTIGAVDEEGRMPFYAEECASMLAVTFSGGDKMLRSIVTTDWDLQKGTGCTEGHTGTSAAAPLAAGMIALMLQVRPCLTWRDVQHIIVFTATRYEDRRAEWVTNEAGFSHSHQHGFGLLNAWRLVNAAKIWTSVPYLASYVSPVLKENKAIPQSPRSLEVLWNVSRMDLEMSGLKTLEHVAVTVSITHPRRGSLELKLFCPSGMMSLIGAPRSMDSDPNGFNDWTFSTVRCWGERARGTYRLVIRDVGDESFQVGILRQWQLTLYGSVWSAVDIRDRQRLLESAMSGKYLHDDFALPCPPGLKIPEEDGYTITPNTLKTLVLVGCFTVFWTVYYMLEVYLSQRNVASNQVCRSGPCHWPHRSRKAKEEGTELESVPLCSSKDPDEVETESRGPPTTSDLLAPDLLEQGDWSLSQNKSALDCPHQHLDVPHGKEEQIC

[3] = target: T1, Proprotein convertase subtilisin/kexin type 7 (Homo sapiens); experiment: Inhibition of recombinant type 8 subtilisin using Arg-Glu-(EDANS)- Ser-Gln-Asn-Tyr-Pro-Ile-Val-Gln-Lys-(DALBCYL)-Arg fluorogenic substrate at 1 ug/ml preincubated for 1 hr measured after 1 hr at 1 min interval by fluorescence assay
[4] = target: T1, Proprotein convertase subtilisin/kexin type 7 (Homo sapiens); experiment: Inhibition of recombinant type 8 subtilisin using Arg-Glu-(EDANS)- Ser-Gln-Asn-Tyr-Pro-Ile-Val-Gln-Lys-(DALBCYL)-Arg fluorogenic substrate at 0.01 ug/ml preincubated for 1 hr measured after 1 hr at 1 min interval by fluorescence assay
[5] = target: T1, Proprotein convertase subtilisin/kexin type 7 (Homo sapiens); experiment: Inhibition of recombinant type 8 subtilisin using Arg-Glu-(EDANS)- Ser-Gln-Asn-Tyr-Pro-Ile-Val-Gln-Lys-(DALBCYL)-Arg fluorogenic substrate at 0.001 ug/ml preincubated for 1 hr measured after 1 hr at 1 min interval by fluorescence assay

| Structure (SMILES) | IC50 [1] [µM] | inhibition [2] [%] | inhibition [3] [%] | inhibition [4] [%] | inhibition [5] [%] |
| --- | --- | --- | --- | --- | --- |
| O=c1oc2ccccc2c(O)c1Cc1c(O)c2ccccc2oc1=O [DICUMAROL] | 4.57 | – | – | – | – |
| CC(=O)CC(c1ccccc1)c1c(O)c2ccccc2oc1=O (stereo not drawn) [WARFARIN] | 0.00832 | – | – | – | – |
| C=C(CO)[C@@]12O[C@@H]1[C@@]1(C)C(=CC2=O)[C@H](O)CC[C@@H]1C [XYLARENONE A] | 2.43 | < 10 | < 10 | < 10 | < 10 |
| C=C(CO)[C@@]12O[C@@H]1[C@@]1(C)C(=CC2=O)[C@H](OC(=O)C(C)CC(C)CC(C)CC)CC[C@@H]1C (stereo partly drawn) [XYLARENONE C] | 0.288 | – | – | – | – |
| C=C(CO)[C@@]12O[C@@H]1[C@@]1(C)C(=CC2=O)[C@H](OC(=O)C(O)(CO)CC(C)CC(C)CC)CC[C@@H]1C (stereo partly drawn) [XYLARENONE D] | 115 | < 10 | < 10 | < 10 | < 10 |
| C=C(CO)[C@@]12O[C@@H]1[C@@]1(C)C(=CC2=O)[C@H](OC(=O)C(O)(CO)CC(C)CC(C)C(C)O)CC[C@@H]1C (stereo partly drawn) [XYLARENONE E] | 127 | < 10 | < 10 | < 10 | < 10 |
